For 24 compounds, IC50 results are on record in patent publication US11203600B2 (Denali Therapeutics Inc., priority 2017, dated 2021).

The target of the test is GST-hRIPK1 (8-327) (Homo sapiens (Human), UniProt Q13546). Nature of the test: Fluorescent Polarization Binding (FP Binding) assay, RIPK1. Particulars: 10 nM GST-hRIPK1 (8-327), 5 nM fluorescent-labeled ligand, RT, 30 min, mean of at least two independent experiments. In short, it runs like this: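 Compound displacement of 5 nM labelled ligand from 10 nM GST-hRIPK1 (8-327) was read as FP (531/595 nm) after 30 min at RT. Buffer: HEPES pH 7.5, NaCl, MgCl2, CHAPS, DTT, Pluronic; 1% DMSO final. IC50s were averaged over at least two independent runs.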
GST-hRIPK1 (8-327), sequence (Q13546 8-327): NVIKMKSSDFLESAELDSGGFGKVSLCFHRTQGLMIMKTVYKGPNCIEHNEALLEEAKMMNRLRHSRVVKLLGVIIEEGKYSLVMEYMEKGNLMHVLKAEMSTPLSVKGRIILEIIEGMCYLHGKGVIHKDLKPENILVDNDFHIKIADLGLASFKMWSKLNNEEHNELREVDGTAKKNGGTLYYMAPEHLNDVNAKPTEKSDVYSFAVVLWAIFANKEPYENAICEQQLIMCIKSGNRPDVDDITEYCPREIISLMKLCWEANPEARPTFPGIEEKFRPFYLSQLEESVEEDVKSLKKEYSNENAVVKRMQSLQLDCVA

As a reminder, the IC50 is the point on the concentration scale where inhibition reaches its midpoint. Read a low IC50 as greater potency in that assay. As for `COC(C)(C(=O)N1CCOc2c(C#N)cncc2C1)C1CC1` (stereo not drawn) [Example 154, 4-(2-cyclopropyl-2-methoxy-propanoyl)-3,5-dihydro-2H-pyrido[3,4-f][1,4]oxazepine-9-carbonitrile], the IC50 fell in the range of 100 to 1000 nM.

For `N#Cc1cncc2c1OCCN(C(=O)C1CCN(c3ncc(F)cn3)CC1)C2` [Example 155, 4-[1-(5-fluoropyrimidin-2-yl)piperidine-4-carbonyl]-3,5-dihydro-2H-pyrido[3,4-f][1,4]oxazepine-9-carbonitrile], the IC50 was 0.1 to 100 nM.

Regarding `O=C(C1CCN(c2ncc(F)cn2)CC1)N1CCOc2c(F)cncc2C1` [Example 156, (9-fluoro-3,5-dihydro-2H-pyrido[3,4-f][1,4]oxazepin-4-yl)-[1-(5-fluoropyrimidin-2-yl)-4-piperidyl]methanone], the IC50 was in the range of 0.1 to 100 nM.

`N#Cc1cncc2c1OCCN(C(=O)C1(F)CCN(c3ncccn3)CC1)C2` [Example 157, 4-(4-fluoro-1-pyrimidin-2-yl-piperidine-4-carbonyl)-3,5-dihydro-2H-pyrido[3,4-f][1,4]oxazepine-9-carbonitrile] came in with an IC50 of 0.1 to 100 nM.

Turning to `CC(C)(Cl)C(=O)N1CCOc2c(C#N)cncc2C1` [Example 158, 4-(2-chloro-2-methyl-propanoyl)-3,5-dihydro-2H-pyrido[3,4-f][1,4]oxazepine-9-carbonitrile], the IC50 was 0.1 to 100 nM.

In the case of `N#Cc1cnc(N2CCC(F)(C(=O)N3CCOc4c(F)cncc4C3)CC2)nc1` [Example 159, 2-[4-fluoro-4-(9-fluoro-3,5-dihydro-2H-pyrido[3,4-f][1,4]oxazepine-4-carbonyl)-1-piperidyl]pyrimidine-5-carbonitrile], the concentration for half-maximal inhibition (IC50) is 100 to 1000 nM.

With `N#Cc1ccnc(N2CCC(F)(C(=O)N3CCOc4c(F)cncc4C3)CC2)n1` [Example 160, 2-[4-fluoro-4-(9-fluoro-3,5-dihydro-2H-pyrido[3,4-f][1,4]oxazepine-4-carbonyl)-1-piperidyl]pyrimidine-4-carbonitrile], the IC50 was in the range of 100 to 1000 nM.

As to `N#Cc1cncc2c1OCCN(C(=O)C1(F)CCN(c3ncc(F)cn3)CC1)C2` [Example 161, 4-[4-fluoro-1-(5-fluoropyrimidin-2-yl)piperidine-4-carbonyl]-3,5-dihydro-2H-pyrido[3,4-f][1,4]oxazepine-9-carbonitrile], the IC50 was in the range of 0.1 to 100 nM.

As for `Cc1ccnc(N2CCC(F)(C(=O)N3CCOc4c(C#N)cncc4C3)CC2)n1` [Example 162, 4-[4-fluoro-1-(4-methylpyrimidin-2-yl)piperidine-4-carbonyl]-3,5-dihydro-2H-pyrido[3,4-f][1,4]oxazepine-9-carbonitrile], the IC50 was in the range of 100 to 1000 nM.

As for `Cc1cnc(N2CCC(F)(C(=O)N3CCOc4c(C#N)cncc4C3)CC2)nc1` [Example 163, 4-[4-fluoro-1-(5-methylpyrimidin-2-yl)piperidine-4-carbonyl]-3,5-dihydro-2H-pyrido[3,4-f][1,4]oxazepine-9-carbonitrile], the IC50 was in the range of 100 to 1000 nM.

Regarding `N#Cc1cncc2c1OCCN(C(=O)C1(F)CCN(c3ncc(Cl)cn3)CC1)C2` [Example 164, 4-[1-(5-chloropyrimidin-2-yl)-4-fluoro-piperidine-4-carbonyl]-3,5-dihydro-2H-pyrido[3,4-f][1,4]oxazepine-9-carbonitrile], the IC50 was in the range of 0.1 to 100 nM.

Compound `N#Cc1cncc2c1OCCN(C(=O)C1(F)CCN(c3ncc4c(n3)COC4)CC1)C2` [Example 165, 4-[1-(5,7-dihydrofuro[3,4-d]pyrimidin-2-yl)-4-fluoro-piperidine-4-carbonyl]-3,5-dihydro-2H-pyrido[3,4-f][1,4]oxazepine-9-carbonitrile] showed an IC50 of 100 to 1000 nM.

As for `N#Cc1cncc2c1OCCN(C(=O)C1(F)CCN(c3nccc4ncnn34)CC1)C2` [Example 166, 4-[4-fluoro-1-([1,2,4]triazolo[1,5-c]pyrimidin-5-yl)piperidine-4-carbonyl]-3,5-dihydro-2H-pyrido[3,4-f][1,4]oxazepine-9-carbonitrile], the IC50 lay in the range of 100 to 1000 nM.

Turning to `N#Cc1cncc2c1OCCN(C(=O)C1(F)CCN(c3nccc(C(F)(F)F)n3)CC1)C2` [Example 167, 4-[4-fluoro-1-[4-(trifluoromethyl)pyrimidin-2-yl]piperidine-4-carbonyl]-3,5-dihydro-2H-pyrido[3,4-f][1,4]oxazepine-9-carbonitrile], the IC50 fell in the range of 100 to 1000 nM.

The compound `Cc1cc(C(F)(F)F)nc(N2CCC(F)(C(=O)N3CCOc4c(C#N)cncc4C3)CC2)n1` [Example 168, 4-[4-fluoro-1-[4-methyl-6-(trifluoromethyl)pyrimidin-2-yl]piperidine-4-carbonyl]-3,5-dihydro-2H-pyrido[3,4-f][1,4]oxazepine-9-carbonitrile] registered an IC50 of 100 to 1000 nM.

Compound `Cn1cnc2cnc(N3CCC(F)(C(=O)N4CCOc5c(C#N)cncc5C4)CC3)nc21` [Example 169, 4-[4-fluoro-1-(9-methylpurin-2-yl)piperidine-4-carbonyl]-3,5-dihydro-2H-pyrido[3,4-f][1,4]oxazepine-9-carbonitrile] displayed an IC50 of 100 to 1000 nM.

`N#Cc1cncc2c1OCCN(C(=O)C1(F)CCN(c3ncc(C(F)(F)F)cn3)CC1)C2` [Example 170, 4-[4-fluoro-1-[5-(trifluoromethyl)pyrimidin-2-yl]piperidine-4-carbonyl]-3,5-dihydro-2H-pyrido[3,4-f][1,4]oxazepine-9-carbonitrile] had an IC50 of 100 to 1000 nM.

`N#Cc1cncc2c1OCCN(C(=O)C1(F)CCN(c3ccnc(C(F)(F)F)n3)CC1)C2` [Example 171] showed an IC50 of 100 to 1000 nM.

`COc1nccc(N2CCC(F)(C(=O)N3CCOc4c(C#N)cncc4C3)CC2)n1` [Example 172, 4-[4-fluoro-1-(2-methoxypyrimidin-4-yl)piperidine-4-carbonyl]-3,5-dihydro-2H-pyrido[3,4-f][1,4]oxazepine-9-carbonitrile] registered an IC50 of 100 to 1000 nM.

The compound `Cc1ocnc1C(=O)N1CCC(F)(C(=O)N2CCOc3c(C#N)cncc3C2)CC1` [Example 173, 4-[4-fluoro-1-(5-methyloxazole-4-carbonyl)piperidine-4-carbonyl]-3,5-dihydro-2H-pyrido[3,4-f][1,4]oxazepine-9-carbonitrile] yielded an IC50 of 100 to 1000 nM.

On to `CC(C)COC(=O)N1CCC(F)(C(=O)N2CCOc3c(C#N)cncc3C2)CC1` [Example 174, isobutyl 4-(9-cyano-3,5-dihydro-2H-pyrido[3,4-f][1,4]oxazepine-4-carbonyl)-4-fluoro-piperidine-1-carboxylate], for which the IC50 was above 1000 nM.

On to `CC(C)(C)C(=O)N1CCOc2c(C#N)cncc2C1` [Example 175, 4-(2,2-dimethylpropanoyl)-3,5-dihydro-2H-pyrido[3,4-f][1,4]oxazepine-9-carbonitrile], for which the IC50 is 0.1 to 100 nM.

Compound `N#Cc1cncc2c1OCCN(C(=O)C1(F)CCN(c3ncc(F)cn3)C1)C2` (stereo not drawn) [Example 176, 4-[3-fluoro-1-(5-fluoropyrimidin-2-yl)pyrrolidine-3-carbonyl]-3,5-dihydro-2H-pyrido[3,4-f][1,4]oxazepine-9-carbonitrile] displayed an IC50 above 1000 nM.

The compound `N#Cc1cncc2c1OCCN(C(=O)C1(Cl)CCN(c3ncc(F)cn3)CC1)C2` [Example 177, 4-[4-chloro-1-(5-fluoropyrimidin-2-yl)piperidine-4-carbonyl]-3,5-dihydro-2H-pyrido[3,4-f][1,4]oxazepine-9-carbonitrile] came in with an IC50 of 0.1 to 100 nM.
